The values that follow are results of earlier work, collected in patent publication US20100028912A1, “IMAGING USING RADIOACTIVE MONOCATIONS IN COMBINATION WITH A RECEPTOR BINDING LIGAND THAT STIMULATES THE INFLUX OF CATIONS” (BRACCO IMAGING S.P.A., priority 2006, published 2010).

One data set deals with Na+-K+ pump. Conditions: guinea pig pancreatic acinar cells in vitro.
Data set [1] relates to alpha(1)-adrenoceptors (AR). Particulars: 30 μM; isolated perfused rat hearts and isolated cardiomyocytes.
Data set [2] has as its system Na+-K+-2Cl- cotransporter (NKCC). Particulars: acute cell exposure; rat L6 skeletal muscle cells.
Data set [3] concerns quiescent Swiss 3T3 cells. Conditions: cells treated with Na+/K+ ATPase pump inhibitor.
Data set [4] has as its system rat vascular smooth muscle cells. Particulars: rat vascular smooth muscle cells in culture.
Data set [5] relates to guinea pig tracheal smooth muscle cells. Particulars: cultured guinea pig tracheal smooth muscle cells.

With `CCCC(=O)Nc1ncnc2c1ncn2[C@@H]1O[C@@H]2COP(=O)(O)O[C@H]2[C@H]1OC(=O)CCC` [dibutyryl cAMP], the “increase of Na+-K+ pump activity (as measured by ouabain-sensitive 86Rb+ uptake)” value (“increase of Na+-K+ pump activity” below) with Na+-K+ pump is on record as “approximately 40%”.

As to `CNC[C@H](O)c1cccc(O)c1` [phenylephrine], the “86Rb+ influx into myocardial cells” value in data set [1] is on record as “increased”.

Consider insulin, for which the “stimulation of NKCC-mediated 86Rb+ influx” value in data set [2] is roughly 1.6 fold.

As to Secretin, in the data set with Na+-K+ pump, the “increase of Na+-K+ pump activity” value was “approximately 40%”.

As to `Cn1c(=O)c2[nH]cnc2n(C)c1=O` [theophylline], in the data set on Na+-K+ pump, the “increase of Na+-K+ pump activity” value is given as “approximately 40%”.

Regarding `CSCC[C@H](NC(=O)[C@H](Cc1ccc(OS(=O)(=O)O)cc1)NC(=O)[C@@H](N)CC(=O)O)C(=O)NCC(=O)N[C@@H](Cc1c[nH]c2ccccc12)C(=O)N[C@@H](CCSC)C(=O)N[C@@H](CC(=O)O)C(=O)N[C@@H](Cc1ccccc1)C(N)=O` [CCK-8, cholecystokinin octapeptide], in the data set on Na+-K+ pump, the “stimulation of ouabain-sensitive 86Rb+ uptake” value is on record as “approximately 60%”.

For `C[C@@H]1O[C@@H](O[C@H]2C[C@@H](O)[C@]3(CO)[C@H]4[C@H](O)C[C@]5(C)[C@@H](C6=CC(=O)OC6)CC[C@]5(O)[C@@H]4CC[C@]3(O)C2)[C@H](O)[C@H](O)[C@H]1O` [ouabain], in data set [3], the “effect on bombesin stimulation of 86Rb+ uptake” value is listed as “virtually abolished”.

Turning to Platelet-derived growth factor, the “influx of 86Rb” value in data set [4] is “acute increase”.

Turning to `NCCc1c[nH]c2ccc(O)cc12` [Serotonin, 5-hydroxytryptamine], in data set [5], the “uptake of 86Rb+” value is listed as “increases”.

`C[N+](C)(C)CCOC(N)=O` [Carbachol]: in the data set with Na+-K+ pump, the “stimulation of ouabain-sensitive 86Rb+ uptake” value is “approximately 60%”.
